Measured values reported in patent US20240116985A1, “STAPLED PEPTIDES AND METHODS THEREOF” (priority 2020, published 2024).

Legend:
[1] = biological target: T1, full-length beta-Catenin (Uniprot ID P35222) (Homo sapiens, UniProt P35222); test: Fluorescence polarization IC50 (beta-catenin / 5FAM-TCF4 10-53 competition); format: binding; settings: fluorescence polarization; read-out: beta-Catenin FP IC50
T1 construct: 10 nM full-length beta-Catenin (Uniprot ID P35222)
T1 sequence (P35222 1-781): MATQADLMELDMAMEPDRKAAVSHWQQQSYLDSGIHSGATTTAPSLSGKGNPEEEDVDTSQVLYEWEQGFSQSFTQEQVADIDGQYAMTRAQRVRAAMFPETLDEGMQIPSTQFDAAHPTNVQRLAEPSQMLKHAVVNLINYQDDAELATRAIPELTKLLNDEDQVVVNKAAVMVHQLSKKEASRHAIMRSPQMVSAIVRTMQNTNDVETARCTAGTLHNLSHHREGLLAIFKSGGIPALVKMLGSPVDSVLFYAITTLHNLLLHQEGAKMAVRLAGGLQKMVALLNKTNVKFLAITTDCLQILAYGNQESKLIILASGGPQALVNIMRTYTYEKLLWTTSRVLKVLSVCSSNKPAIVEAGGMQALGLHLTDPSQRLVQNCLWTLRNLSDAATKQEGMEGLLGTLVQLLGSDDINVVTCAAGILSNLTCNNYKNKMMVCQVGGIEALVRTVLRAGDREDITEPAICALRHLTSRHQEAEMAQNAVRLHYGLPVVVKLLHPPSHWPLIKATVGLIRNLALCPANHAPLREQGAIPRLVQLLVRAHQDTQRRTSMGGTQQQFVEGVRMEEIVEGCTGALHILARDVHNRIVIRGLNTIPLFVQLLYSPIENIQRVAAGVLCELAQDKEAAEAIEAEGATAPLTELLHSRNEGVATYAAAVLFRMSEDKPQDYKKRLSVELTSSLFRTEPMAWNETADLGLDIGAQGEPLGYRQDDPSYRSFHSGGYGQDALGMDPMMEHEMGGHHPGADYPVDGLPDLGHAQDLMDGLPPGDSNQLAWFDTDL

[2] = biological target: T2, beta-catenin/TCF4 engagement (Homo sapiens, UniProt P35222); test: Nano-BRET target engagement assay (B-cat-Halo & TCF4-Luc in HEK293 cells); format: cell-based; settings: absolute IC50; read-out: NanoBRET Abs IC50
T2 construct: expressed in transfected cells; host or cells: HEK293
T2 sequence (P35222 1-781): T1 sequence (P35222 1-781)

SMILES | IC50 [1] | IC50 [2]
CC(=O)N1CCC[C@]12CC=CCCCC1(CCCC=CCCCOC(=O)N3CC[C@@](C(=O)N[C@@H](Cc4ccsc4)C(=O)N[C@@H](Cc4csc5ccccc45)C(=O)N[C@@H](CCC(N)=O)C(N)=O)(C3)NC(=O)[C@H](CC(C)C)NC(=O)[C@H](Cc3ccccc3)NC(=O)[C@H](C)NC(=O)[C@H](C)NC(=O)[C@H](CN(CC(=O)O)C(=O)Cc3c(F)c(F)c(F)c(F)c3F)NC(=O)[C@H](CC(=O)O)NC1=O)NC(=O)[C@H](CC(C)(C)C)NC(=O)[C@H](CC(=O)O)NC2=O (stereo partly drawn) [I-2241, Ac-PL3-Asp-Npg-B5-Asp-[PfPhAc]GA-Ala-Ala-Phe-Leu-PyrS2-3Thi-BztA-Gln-NH2] | 18 nM | 17700 nM
CC(=O)N1CCC[C@]12CC=CCCCC1(CCCC=CCCCOC(=O)N3CC[C@@](C(=O)N[C@@H](Cc4ccsc4)C(=O)N[C@@H](Cc4csc5ccccc45)C(=O)N[C@@H](CCC(N)=O)C(N)=O)(C3)NC(=O)[C@H](CC(C)C)NC(=O)[C@H](Cc3ccccc3)NC(=O)[C@H](C)NC(=O)[C@H](C)NC(=O)[C@H](CN(CC(=O)O)C(=O)c3c(F)c(F)c(F)c(F)c3F)NC(=O)[C@H](CC(=O)O)NC1=O)NC(=O)[C@H](CC(C)(C)C)NC(=O)[C@H](CC(=O)O)NC2=O (stereo partly drawn) [I-2242, Ac-PL3-Asp-Npg-B5-Asp-[PfBz]GA-Ala-Ala-Phe-Leu-PyrS2-3Thi-BztA-Gln-NH2] | 13 nM | 21400 nM
CC(=O)N1CCC[C@]12CC=CCCCC1(CCCC=CCCCOC(=O)N3CC[C@@](C(=O)N[C@@H](Cc4ccsc4)C(=O)N[C@@H](Cc4csc5ccccc45)C(=O)N[C@@H](CCC(N)=O)C(N)=O)(C3)NC(=O)[C@H](CC(C)C)NC(=O)[C@H](Cc3ccccc3)NC(=O)[C@H](C)NC(=O)[C@H](C)NC(=O)[C@H](CCN(CC(=O)O)C(=O)CCCN(C)C)NC(=O)[C@H](CC(=O)O)NC1=O)NC(=O)[C@H](CC(C)(C)C)NC(=O)[C@H](CC(=O)O)NC2=O (stereo partly drawn) [I-2243, Ac-PL3-Asp-Npg-B5-Asp-[NdiMeButC]GAbu-Ala-Ala-Phe-Leu-PyrS2-3Thi-BztA-Gln-NH2] | 15 nM | 25200 nM
CC(=O)N1CCC[C@]12CC=CCCCC1(CCCC=CCCCOC(=O)N3CC[C@@](C(=O)N[C@@H](Cc4ccsc4)C(=O)N[C@@H](Cc4csc5ccccc45)C(=O)N[C@@H](CCC(N)=O)C(N)=O)(C3)NC(=O)[C@H](CC(C)C)NC(=O)[C@H](Cc3ccccc3)NC(=O)[C@H](C)NC(=O)[C@H](C)NC(=O)[C@H](CCN(CC(=O)O)C(=O)C3CCN(C)CC3)NC(=O)[C@H](CC(=O)O)NC1=O)NC(=O)[C@H](CC(C)(C)C)NC(=O)[C@H](CC(=O)O)NC2=O (stereo partly drawn) [I-2245, Ac-PL3-Asp-Npg-B5-Asp-[4AcMePip]GAbu-Ala-Ala-Phe-Leu-PyrS2-3Thi-BztA-Gln-NH2] | 26 nM | > 20000 nM
CC(=O)N1CCC[C@]12CC=CCCCC1(CCCC=CCCCOC(=O)N3CC[C@@](C(=O)N[C@@H](Cc4ccsc4)C(=O)N[C@@H](Cc4csc5ccccc45)C(=O)N[C@@H](CCC(N)=O)C(N)=O)(C3)NC(=O)[C@H](CC(C)C)NC(=O)[C@H](Cc3ccccc3)NC(=O)[C@H](C)NC(=O)[C@H](C)NC(=O)[C@H](CCN(CC(=O)O)C(=O)Cc3ccc(C(F)(F)F)cc3)NC(=O)[C@H](CC(=O)O)NC1=O)NC(=O)[C@H](CC(C)(C)C)NC(=O)[C@H](CC(=O)O)NC2=O (stereo partly drawn) [I-2246, Ac-PL3-Asp-Npg-B5-Asp-[4CF3PhAc]GAbu-Ala-Ala-Phe-Leu-PyrS2-3Thi-BztA-Gln-NH2] | 27 nM | 12900 nM
CC(=O)N1CCC[C@]12CC=CCCCC1(CCCC=CCCCOC(=O)N3CC[C@@](C(=O)N[C@@H](Cc4ccsc4)C(=O)N[C@@H](Cc4csc5ccccc45)C(=O)N[C@@H](CCC(N)=O)C(N)=O)(C3)NC(=O)[C@H](CC(C)C)NC(=O)[C@H](Cc3ccccc3)NC(=O)[C@H](C)NC(=O)[C@H](C)NC(=O)[C@H](CCN(CC(=O)O)C(=O)Cc3c(F)c(F)c(F)c(F)c3F)NC(=O)[C@H](CC(=O)O)NC1=O)NC(=O)[C@H](CC(C)(C)C)NC(=O)[C@H](CC(=O)O)NC2=O (stereo partly drawn) [I-2251, Ac-PL3-Asp-Npg-B5-Asp-[PfPhAc]GAbu-Ala-Ala-Phe-Leu-PyrS2-3Thi-BztA-Gln-NH2] | 15 nM | 6400 nM
CC(=O)N1CCC[C@]12CC=CCCCC1(CCCC=CCCCOC(=O)N3CC[C@@](C(=O)N[C@@H](Cc4ccsc4)C(=O)N[C@@H](Cc4csc5ccccc45)C(=O)N[C@@H](CCC(N)=O)C(N)=O)(C3)NC(=O)[C@H](CC(C)C)NC(=O)[C@H](Cc3ccccc3)NC(=O)[C@H](C)NC(=O)[C@H](C)NC(=O)[C@H](CCN(CC(=O)O)C(=O)c3c(F)c(F)c(F)c(F)c3F)NC(=O)[C@H](CC(=O)O)NC1=O)NC(=O)[C@H](CC(C)(C)C)NC(=O)[C@H](CC(=O)O)NC2=O (stereo partly drawn) [I-2252, Ac-PL3-Asp-Npg-B5-Asp-[PfBz]GAbu-Ala-Ala-Phe-Leu-PyrS2-3Thi-BztA-Gln-NH2] | 31 nM | 17500 nM
CC(=O)N1CCC[C@]12CC=CCCCC1(CCCC=CCCCOC(=O)N3CC[C@@](C(=O)N[C@@H](Cc4ccsc4)C(=O)N[C@@H](Cc4csc5ccccc45)C(=O)N[C@@H](C)C(N)=O)(C3)NC(=O)[C@H](CC(C)C)NC(=O)[C@H](Cc3ccccc3)NC(=O)[C@H](C)NC(=O)[C@H](C)NC(=O)[C@H](Cc3cccc(C(=O)O)c3)NC(=O)[C@H](CC(=O)O)NC1=O)NC(=O)[C@H](CC(C)(C)C)NC(=O)[C@H](CC(=O)O)NC2=O (stereo partly drawn) [I-2257, Ac-PL3-Asp-Npg-B5-Asp-3COOHF-Ala-Ala-Phe-Leu-PyrS2-3Thi-BztA-Ala-NH2] | 15 nM | 2900 nM

Compounds with a lower IC50 [1], results first:

IC50 [1] | IC50 [2] | SMILES
10 nM | 31900 nM | CC(=O)N1CCC[C@]12CC=CCCCC1(CCCC=CCCCOC(=O)N3CC[C@@](C(=O)N[C@@H](Cc4ccsc4)C(=O)N[C@@H](Cc4csc5ccccc45)C(=O)N[C@@H](CCC(N)=O)C(N)=O)(C3)NC(=O)[C@H](CC(C)C)NC(=O)[C@H](Cc3ccccc3)NC(=O)[C@H](C)NC(=O)[C@H](C)NC(=O)[C@H](CN(CC(=O)O)C(=O)CN3CCOCC3)NC(=O)[C@H](CC(=O)O)NC1=O)NC(=O)[C@H](CC(C)(C)C)NC(=O)[C@H](CC(=O)O)NC2=O (stereo partly drawn) [I-2239, Ac-PL3-Asp-Npg-B5-Asp-[MorphAc]GA-Ala-Ala-Phe-Leu-PyrS2-3Thi-BztA-Gln-NH2]
8 nM | 5900 nM | CC(=O)N1CCC[C@]12CC=CCCCC1(CCCC=CCCCOC(=O)N3CC[C@@](C(=O)N[C@@H](Cc4ccsc4)C(=O)N[C@@H](Cc4csc5ccccc45)C(=O)N[C@@H](CCC(N)=O)C(N)=O)(C3)NC(=O)[C@H](CC(C)C)NC(=O)[C@H](Cc3ccccc3)NC(=O)[C@H](C)NC(=O)[C@H](C)NC(=O)[C@H](CCN(CC(=O)O)C(=O)c3ccccn3)NC(=O)[C@H](CC(=O)O)NC1=O)NC(=O)[C@H](CC(C)(C)C)NC(=O)[C@H](CC(=O)O)NC2=O (stereo partly drawn) [I-2247, Ac-PL3-Asp-Npg-B5-Asp-[Pic]GAbu-Ala-Ala-Phe-Leu-PyrS2-3Thi-BztA-Gln-NH2]
8 nM | 21500 nM | CC(=O)N1CCC[C@]12CC=CCCCC1(CCCC=CCCCOC(=O)N3CC[C@@](C(=O)N[C@@H](Cc4ccsc4)C(=O)N[C@@H](Cc4csc5ccccc45)C(=O)N[C@@H](CCC(N)=O)C(N)=O)(C3)NC(=O)[C@H](CC(C)C)NC(=O)[C@H](Cc3ccccc3)NC(=O)[C@H](C)NC(=O)[C@H](C)NC(=O)[C@H](CCN(CC(=O)O)C(=O)c3ccc(CN4CCOCC4)cc3)NC(=O)[C@H](CC(=O)O)NC1=O)NC(=O)[C@H](CC(C)(C)C)NC(=O)[C@H](CC(=O)O)NC2=O (stereo partly drawn) [I-2248, Ac-PL3-Asp-Npg-B5-Asp-[MeMorphBz]GAbu-Ala-Ala-Phe-Leu-PyrS2-3Thi-BztA-Gln-NH2]
5 nM | 24300 nM | CC(=O)N1CCC[C@]12CC=CCCCC1(CCCC=CCCCOC(=O)N3CC[C@@](C(=O)N[C@@H](Cc4ccsc4)C(=O)N[C@@H](Cc4csc5ccccc45)C(=O)N[C@@H](CCC(N)=O)C(N)=O)(C3)NC(=O)[C@H](CC(C)C)NC(=O)[C@H](Cc3ccccc3)NC(=O)[C@H](C)NC(=O)[C@H](C)NC(=O)[C@H](CN(CC(=O)O)C(=O)c3ccccn3)NC(=O)[C@H](CC(=O)O)NC1=O)NC(=O)[C@H](CC(C)(C)C)NC(=O)[C@H](CC(=O)O)NC2=O (stereo partly drawn) [I-2237, Ac-PL3-Asp-Npg-B5-Asp-[Pic]GA-Ala-Ala-Phe-Leu-PyrS2-3Thi-BztA-Gln-NH2]
5 nM | > 20000 nM | CC(=O)N1CCC[C@]12CC=CCCCC1(CCCC=CCCCOC(=O)N3CC[C@@](C(=O)N[C@@H](Cc4ccsc4)C(=O)N[C@@H](Cc4csc5ccccc45)C(=O)N[C@@H](CCC(N)=O)C(N)=O)(C3)NC(=O)[C@H](CC(C)C)NC(=O)[C@H](Cc3ccccc3)NC(=O)[C@H](C)NC(=O)[C@H](C)NC(=O)[C@H](CN(CC(=O)O)C(=O)CN3CCN(C)CC3)NC(=O)[C@H](CC(=O)O)NC1=O)NC(=O)[C@H](CC(C)(C)C)NC(=O)[C@H](CC(=O)O)NC2=O (stereo partly drawn) [I-2240, Ac-PL3-Asp-Npg-B5-Asp-[MePipAc]GA-Ala-Ala-Phe-Leu-PyrS2-3Thi-BztA-Gln-NH2]
